Measurements published in ChEMBL document CHEMBL1148864, “Design of LFA-1 antagonists based on a 2,3-dihydro-1H-pyrrolizin-5(7aH)-one scaffold” (Bioorg Med Chem Lett, 2007).

Assays:
Homo sapiens [1] = organism: Homo sapiens; settings: 1 uM
Homo sapiens [2] = organism: Homo sapiens; settings: 10 uM

| Structure (SMILES) | inhibition (Homo sapiens [1]) [%] | inhibition (Homo sapiens [2]) [%] |
| --- | --- | --- |
| N#Cc1ccc(C[C@@]23CCCN2C(=O)C(c2cc(Cl)cc(Cl)c2)=C3O)cc1 | 27 |  |
| O=C1C(c2cc(Cl)cc(Cl)c2)=C(c2cc[nH]n2)[C@]2(Cc3ccc(Br)cc3)CCCN12 |  | 30 |
